US20240287614A1, “RECIPROCAL MICRORNA-MRNA PAIRINGS AS BIOMARKERS AND THERAPEUTIC TARGETS IN CANCER” (UNIVERSITY OF MARYLAND, EASTERN SHORE, priority 2023, published 2024)

Assays:
[1] = test system: prostate cancer (LNCaP and PC-3) and prostate cancer (RC77 T/E and MDA PCa 2b) cell lines; experiment: BrdU-labeling cell proliferation assay; assay type: cell-based, human; settings: PC-3, RC77 T/E and MDA PCa 2b, 48 h transfection, vs NS
Description: […] RC77 T/E, a primary prostate cancer cell line derived from a patient, was kindly provided by Dr. Johng Rhim at Center for Prostate Disease Research (CPDR) in Rockville, MD. LNCaP and PC-3 were served as prostate cancer cell line models, and RC77 T/E and MDA PCa 2b were served as prostate cancer cell models in the study. The cells were cultured in specific cell culture media, LNCaP was cultured in RPMI with 10% fetal bovine serum (FBS), PC-3 was cultured in DMEM with 10% FBS, MDA PCa 2b were cultured in BRFF-HPC1 with 20% FBS and RC77 T/E was cultured in Keratinocyte SFM with Human Recombinant Epidermal Growth Factor (EGF 1-53) and Bovine Pituitary Extract (BPE). Cells were maintained at 37° C. in a 5% CO2 incubator. LNCaP, PC-3 and MDA PCa 2b cells were seeded at density 3×10^4 cells/well in 6-well plates. RC77 T/E cells were seeded at density 5×10^4 cells/well in 6-well plates. […]
LNCaP, PC-3, RC77 T/E and MDA PCa 2b cells were seeded at density 3×10^4 cells/well in 6-well culture plates. […] 100 μL of stop solution was used to stop further reaction and followed by checking absorbance at dual wavelengths of 450 nm and 540 nm using Multiskan FC microplate photometer (Thermo Scientific).

mTOR and pmTOR = experiment: Immunofluorescence of mTOR and pmTOR in colon, breast and lung cancer cell lines; assay type: cell-based, human
Excerpt: The human cell lines used in the study included: 22Rv1, LNCaP, PC-3, RC77 T/E and MDA PCa 2b (prostate cancer cell lines), MDA MB 231 and MCF-7 (breast cancer cell lines), HT-29 and SW620 (colon cancer cell lines), A549 and H1299 (lung cancer cell lines). RWPE-1, HMEC, FHC, and BEAS-2B were used as normal control cell lines for prostate, breast, colon, and lung, respectively. Note that 22Rv1 is a castration-resistant […] prostate cancer cell line, while LNCaP and PC-3 were derived from lymph node and bone metastasis of […] prostate cancer patients, respectively. RC77 T/E was derived from a primary prostate cancer patient, and MDA PCa 2b was derived from bone metastasis of an prostate cancer patient. The cell lines described were used as in vitro cell models to evaluate the functional roles of miR-99b-5p/MTOR pairing in the […] prostate cancer, African American prostate cancer and solid tumors in general. The cells were grown in specific cell culture media described as follows: 22Rv1, LNCaP, MCF-7 and H1299 were cultured in RPMI-1640 with 10% fetal bovine serum (FBS), PC-3, A549 and FHC were cultured in DMEM with 10% FBS, RC77 T/E was cultured in Keratinocyte SFM with human recombinant epidermal growth factor (EGF) and bovine pituitary extract (BPE), MDA PCa 2b were cultured in BRFF-HPC1 with 20% FBS, HT-29 was cultured in McCory's with 10% FBS, SW620 and MDA MB 231 were cultured in L-15 with 10% FBS, HMEC was cultured in mammary epithelial cell basal medium with supplements, and BEAS-2B was cultured in BEBM base medium with BEBM supplement kit. Cells were maintained at 37° C. in a 5% CO2 incubator.
The 22Rv1, LNCaP, PC-3, MDA PCa 2b, MCF7, H1299, A549, HT-29, SW620, MDA MB-231, HMEC and BEAS-2B cells were seeded at a density of 3×10^5 cells/well in 6-well plates. RC77 T/E cells were seeded at a density of 5×10^5 cells/well in 6-well plates. The cells were grown for 24 h and then transfected with nonsense/scrambled RNA (NS) and miR-99b-5p mimic (Ambion) using DharmaFECT4 transfection reagent (Dharmacon). After 24 h, fresh media were applied to replace the transfection reagent-containing media, then the cells were incubated for an additional 24 h.
In this process, 4×10^4 cells were seeded on cover slip and allowed to adhere for 24 h in 5% CO2 incubator at 37° C. All the cells were subjected to immunofluorescence assays 48 h following transfection. Briefly, cells were washed with 1×PBS, fixed in 4% paraformaldehyde, and permeabilized with 0.1% Triton X-100. Cells were then blocked for 1 h with 2% BSA in 1×PBS. […] All labeled and/or prepared cells mounted on glass slides and were visualized by fluorescence microscopy (Olympus). […]

[2] = HT-29, SW620, MDA MB 231, MCF-7, A549, H1299, miR-99b-5p transfected vs NS transfected
[3] = six colon, breast, lung cancer cell lines, mimic vs NS

miR-99b-5p mimic: miRNA mimic of miR-99b-5p (SEQ ID NO: 2, CACCCGUAGAACCGACCUUGCG), purchased from Ambion (listed as RNA, chemistry not given here; listed as Homo sapiens)
cell proliferation (BrdU labeling) [1]: reduction | mTOR levels (immunofluorescence) (mTOR and pmTOR; [2]): generalized reduction | pmTOR levels (immunofluorescence) (mTOR and pmTOR; [2]): generalized reduction | cytoplasmic mTOR/nuclear mTOR ratios (immunofluorescence) (mTOR and pmTOR; [3]): elevated | cytoplasmic pmTOR/nuclear pmTOR ratios (immunofluorescence) (mTOR and pmTOR; [3]): elevated
